From ChEMBL document CHEMBL1137184, “Anti-HIV activity of some synthetic lignanolides and intermediates” (Bioorg Med Chem Lett, 2004)
pIC50: −log10 of the molar value.

How the values were obtained:
[1] = test system: Human immunodeficiency virus 1; test: Compound was evaluated for the inhibition of HIV-1 LTR by TNF-alpha-induced NF-kB assay at 50 uM concentration (TNF-alpha-treated cells); type: functional
[2] = test system: Human immunodeficiency virus 1; test: Compound was evaluated for the inhibition of HIV-1 LTR by TNF-alpha-induced NF-kB assay at 25 uM concentration (TNF-alpha-treated cells); type: functional
[3] = test system: Human immunodeficiency virus 1; test: Compound was evaluated for the inhibition of HIV-1 LTR by HeLa-Tet-ON assay at 25 uM concentration; type: functional
[4] = test system: Human immunodeficiency virus 1; test: Compound was evaluated for activity in Recombinant virus assay at concentration that reduces luciferase activity, thus recombinant virus replication; type: functional, organism-based
[5] = test system: Human immunodeficiency virus 1; test: Compound was evaluated for anti-Tat activity in the HeLa-TAT-Luc cell assay against human immunodeficiency virus at 25 uM concentration (Untreated cells); type: functional
[6] = Compound was evaluated for toxicity in necrosis using MT2 assay at 50 uM concentration at 24 hr; details: human
[7] = Compound was evaluated for IP toxicity at concentration that reduces cellular growth; details: human
[8] = test system: Human immunodeficiency virus 1; test: Compound was evaluated for anti-Tat activity in the HeLa-TAT-Luc cell assay against human immunodeficiency virus at 100 uM concentration (Untreated cells); type: functional
[9] = test system: Human immunodeficiency virus 1; test: Compound was evaluated for anti-Tat activity in the HeLa-TAT-Luc cell assay against human immunodeficiency virus at 50 uM concentration (Untreated cells); type: functional
[10] = test system: Human immunodeficiency virus 1; test: Compound was evaluated for the inhibition of HIV-1 LTR by HeLa-Tet-ON assay at 50 uM concentration; type: functional
[11] = Compound was evaluated for toxicity in necrosis using MT2 assay at 25 uM concentration at 24 hr; details: human
[12] = test system: Human immunodeficiency virus 1; test: Compound was evaluated for the inhibition of HIV-1 LTR by TNF-alpha-induced NF-kB assay at 100 uM concentration (TNF-alpha-treated cells); type: functional
[13] = test system: Human immunodeficiency virus 1; test: Compound was evaluated for the inhibition of HIV-1 LTR by TNF-alpha-induced NF-kB assay at 100 uM concentration (TNF-alpha-treated cells);toxic at this dose; type: functional, organism-based
[14] = test system: Human immunodeficiency virus 1; test: Compound was evaluated for anti-Tat activity in the HeLa-TAT-Luc cell assay against human immunodeficiency virus at 100 uM concentration (Untreated cells);toxic at this dose; type: functional, organism-based
[15] = test system: Human immunodeficiency virus 1; test: Compound was evaluated for anti-Tat activity in the HeLa-TAT-Luc cell assay against human immunodeficiency virus at 50 uM concentration (Untreated cells);toxic at this dose; type: functional, organism-based

Row | SMILES | inhibition at 50 µM [1] | inhibition at 25 µM [2] | inhibition at 25 µM [3] | pIC50 [4] | inhibition at 25 µM [5] | Cell death [6] | CC50 [7] | inhibition at 100 µM [8] | inhibition at 50 µM [9] | inhibition at 50 µM [10] | Cell death [11] | inhibition at 100 µM [12] | inhibition [13] | inhibition [14] | inhibition [15]
1 | CCn1c2ccccc2c2cc(C3(C4COC(=O)C4)SCCCS3)ccc21 (configuration not stated) | 30% | -7.1% | < 15% | 5.34 | 43.4% | 4.2% | > 50 µM | 40.1% | 41.5% | < 15% | 4.9% | 17.6% | – | – | –
2 | COc1cc([C@@H]2c3c(ccc4ccccc34)C(=O)[C@H]3COC(=O)[C@@H]23)cc(OC)c1OC | 25.8% | 32.9% | < 15% | – | -0.6% | 4.5% | – | 43% | 60% | > 15% | 5.5% | 95.5% | – | – | –
3 | C=C1C(=O)c2ccc3ccccc3c2[C@@H](c2cc(OC)c(OC)c(OC)c2)[C@@H]1C(=O)OC | 98.9% | 96.7% | < 15% | – | 56.2% | 98% | – | – | – | > 15% | 95% | – | Toxic | Toxic | Toxic
4 | COc1cc(C(O)[C@@H]2C(=O)OCC2C(=O)c2cccc3ccccc23)cc(OC)c1OC (some centres not stated) | 64.2% | 37.5% | > 15% | – | 1.6% | 45.7% | – | 65% | 18% | > 15% | 32.1% | – | Toxic | – | –
5 | CCn1c2ccccc2c2cc(C3(C4COC(=O)[C@@H]4C(O)c4cc(OC)c(OC)c(OC)c4)SCCCS3)ccc21 (some centres not stated) | 39.7% | 38.5% | < 15% | 4.57 | 11.9% | 4% | > 50 µM | 30.7% | 20.3% | < 15% | 4.6% | 43.7% | – | – | –
6 | COc1cc([C@@H]2c3cccc4cccc(c34)C3(SCCCS3)[C@H](CO)[C@@H]2CO)cc(OC)c1OC | 35.2% | 43.5% | – | – | 11.7% | 6.7% | – | 16.4% | 17.6% | – | 7.9% | 25.2% | – | – | –
7 | COc1cc(C2C(=O)OCC2C(=O)c2cccc3ccccc23)cc(OC)c1OC (configuration not stated) | 24.9% | 1.5% | > 15% | – | 11.6% | 7.6% | – | – | – | > 15% | 6.2% | – | Toxic | Toxic | Toxic
8 | COC(=O)[C@H]1[C@H](c2cc(OC)c(OC)c(OC)c2)c2c(ccc3ccccc23)C(=O)[C@]12CCN=N2 | 87.1% | 32.9% | > 15% | – | 38.8% | 43.1 | – | 46% | 42.2% | > 15% | 30 | 92% | – | – | –
9 | O=C1CC(C2(c3cccc4ccccc34)SCCCS2)CO1 (configuration not stated) | 24.2% | 3% | < 15% | – | 6% | 3.5% | – | 25.6% | 9.7% | > 15% | 2.9% | 81% | – | – | –
10 | COc1cc(C(O)[C@H]2C(=O)OCC2C2(c3ccc4ccccc4c3)SCCCS2)cc(OC)c1OC (some centres not stated) | 57.2% | 77% | > 15% | – | 36.6% | 14.6% | – | 30.9% | 38.8% | > 15% | 11.4% | 65.9% | – | – | –
11 | COc1cc([C@@H]2c3cccc4cccc(c34)C3(SCCCS3)[C@@H]3COC(=O)[C@@H]23)cc(OC)c1OC | 38% | 21.8% | – | – | -35.9% | 10.5% | – | -40.9% | -39.7% | – | 10.3% | 23.6% | – | – | –
12 | COc1cc([C@H]2c3c(ccc4ccccc34)C3(SCCCS3)[C@H]3COC(=O)[C@H]23)cc(OC)c1OC | 10.8% | 17.6% | – | – | -9.1% | – | – | -19% | -9.4% | – | – | -11.7% | – | – | –
13 | COc1cc2c(c(OC)c1OC)[C@]13C(=O)OC[C@H]1[C@@H](C)c1cccc4cccc(c14)[C@@H]23 | 56.1% | 73.6% | < 15% | 5.64 | -53.1% | 11.3% | > 50 µM | -53.1% | -52.9% | < 15% | 7.8% | – | – | – | –
